Data on two compounds can be found in US8952054B2, “Small molecule inhibitors of MUC1 and methods of identifying the same” (Dana-Farber Cancer Institute, Inc., priority 2010, dated 2015).

SMILES strings stand for the structures.

The target in data set [1] is T1, MUC1-C (Homo sapiens, UniProt P15941).
T1 sequence (P15941 1098-1255 limits assumed): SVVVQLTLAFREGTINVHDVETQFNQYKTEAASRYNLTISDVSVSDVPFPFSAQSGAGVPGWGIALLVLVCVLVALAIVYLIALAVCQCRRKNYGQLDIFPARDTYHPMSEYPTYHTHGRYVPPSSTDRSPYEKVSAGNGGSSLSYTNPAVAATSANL
Put plainly: Immunoblot of MUC1-C expression in BT474 cells. The format is cell-based. Also noted: endogenous in cells. As to conditions: BT474, 3 d then additional 3 d. How it is done:
(§1) FIGS. 16A-D—Effects of apigenin on breast cancer cells without and with endogenous MUC1 expression. (FIG. 16A) Lysates from human MCF-7, HCC1937 and BT474 cells were immunoblotted with the indicated antibodies. (FIG. 16B) BT474 cells were treated with indicated concentrations of apigenin and baicalein for 3 d, washed and then treated for an additional 3 d. Lysates were immunoblotted with the indicated antibodies. (FIG. 16C) BT474 (triangles) and HCC1937 (squares) cells were treated with apigenin for 3 d. Viable cell numbers were determined by MTS assay. The results (mean+SD of 3 determinations) are expressed as percentage of control growth in the presence of DMSO. (FIG. 16D) BT474 cells were plated at a density of 5000 cells/6 cm dish. At 24 h after seeding, DMSO or apigenin at concentrations of 25, 50 and 75 μM was added to the medium. After 2 weeks, colonies were stained with crystal violet. The results (mean+SD of 3 determinations) are expressed as percentage of control colony formation in the presence of DMSO.

Another data set has as its system BT474 cells. Put plainly: BT474 viability (MTS) and colony formation. It counts as cell-based, human. How it is done: as §1
Data set [2] can be described thus: Body weight of nude mice given peptide. It counts as in vivo, nude (nu/nu) mice. How it is done:
To determine if administration of the MUC1/CQC peptide is associated with effects on body weight, five female nude (nu/nu) mice were injected intraperitoneally (IP) once each day at a dose of 50 mg/kg. […] To assess anti-tumor activity, ZR-75-1 cells (1×10^7) were implanted subcutaneously into the flanks of nude mice. After 12 d, mice bearing tumors of approximately 150 mm^3 were treated with the MUC1/CQC peptide at doses of 10 and 50 mg/kg/d. As controls, mice were treated with vehicle alone or with the MUC1/AQA peptide. Administration of the MUC1/CQC peptide at 10 mg/kg/d×21 d slowed growth as compared to that obtained with the MUC1/AQA peptide given at 50 mg/kg/d (FIG. 5A). […] Consequently, treatment was stopped and the mice were monitored for regrowth. […] To assess in part the basis for the activity, tumors harvested from control and treated mice were examined by histopathology. […] Sections of the tumors were also stained with an antibody against MUC1.

Another data set relates to ZR-75-1/vector cells. Nature of the data set: Viable cell number by trypan blue exclusion, ZR-75-1/vector. The format is cell-based, human. As to conditions: 5 μM. On the procedure:
FIGS. 4A-E. Selectivity of MUC1/CQC for MUC1 expressing breast cancer cells. (FIG. 4A) ZR-75-1 cells were stably infected with an empty lentivirus (vector) or one expressing a MUC1 siRNA. Lysates for the infected cells were immunoblotted with the indicated antibodies. (FIG. 4B) ZR-75-1/vector cells were left untreated (diamonds), and ZR-75-1/vector (squares) and ZR-75-1/MUC1 siRNA (triangles) cells were treated with 5 μM MUC1/CQC peptide for the indicated times. Viable cell number was determined by trypan blue exclusion. (FIG. 4C) 293 cells were left untreated (diamonds), and treated with 5 μM MUC1/CQC (squares) or MUC1/AQA (triangles) for the indicated times. Viable cell number was determined by trypan blue exclusion. (FIG. 4D) MCF-10A cells were left untreated (left panel), and treated with 5 μM MUC1/CQC (middle panel) or MUC1/AQA (right panel). At 3 d, cells were analyzed for cell cycle distribution. […] Viable cell number was determined by trypan blue exclusion.
Human breast cancer ZR-75-1, ZR-75-1/vector, ZR-75-1/MUC1siRNA (Ren et al., 2004) cell lines were grown in RPMI1640 medium supplemented with 10% heat-inactivated fetal bovine serum (HI-FBS), 100 U/ml penicillin, and 100 μg/ml streptomycin (Invitrogen) in a humidified incubator at 37° C. and 5% CO2. […] Viability was determined by trypan blue exclusion.

Data set [3] concerns the target T1, MUC1-C. Put plainly: Immunoblot of nuclear MUC1-C levels in MCF-7 cells (peptide). Also noted: Human ZR-75-1 and MCF-7 breast cancer cells overexpress endogenous MUC1; endogenous in cells; host or cells: ZR-75-1; MCF-7. The conditions noted are these: MCF-7, 5 μM peptide, 3 d. The format is cell-based. How it is done: FIGS. 2A-C. MUC1/CQC peptide blocks nuclear localization of MUC1-C. (FIG. 2A) ZR-75-1 cells were incubated with 5 μM FITC-labeled MUC1/CQC peptide for the indicated times and then analyzed by flow cytometry. The mean fluorescence index (MFI) is included in each of the panels. (FIGS. 2B-C) ZR-75-1 (FIG. 2B) and MCF-7 (FIG. 2C) cells were incubated in the presence of 5 μM MUC1/CQC or MUC1/AQA peptide for 3 d. Whole cell lysates (WCL) (left panels) and nuclear lysates (right panels) were immunoblotted with the indicated antibodies.
Whole cell and nuclear lysates were prepared as described (Leng et al., 2007). Soluble proteins were subjected to immunoprecipitation with anti-Flag (Sigma, St. Louis, Mo.). Immunoprecipitates and soluble proteins were analyzed by immunoblotting with anti-His (Cell Signaling Technology, Danvers, Mass.), anti-GFP (Millipore, Danvers, Mass.), anti-Flag, anti-MUC1-C (Ab1; NeoMarkers, Fremont, Calif.), anti-lamin B (EMD, La Jolla, Calif.) or anti-β-actin (Sigma). Reactivity was detected with horseradish peroxidase-conjugated second antibodies and chemiluminescence.

`O=c1cc(-c2ccc(O)cc2)oc2cc(O)cc(O)c12` [Apigenin, 4′,5,7-trihydroxyflavone]: on MUC1-C [1], the MUC1-C expression result is “downregulation of MUC1-C expression”. Moreover, the clonogenic survival result in the data set with BT474 cells (BT474, 25, 50 and 75 μM, 2 weeks) is “concentration dependent decreases in clonogenic survival”. In addition, the “viability (MTS)” value in the data set with BT474 cells (BT474, 3 d) was “loss of viability”.
With `CC[C@H](C)[C@H](NC(=O)[C@H](CC(=O)O)NC(=O)[C@H](CC(C)C)NC(=O)[C@H](CCC(N)=O)NC(=O)CNC(=O)[C@H](Cc1ccc(O)cc1)NC(=O)[C@H](CC(N)=O)NC(=O)[C@H](CCCCN)NC(=O)[C@H](CCCNC(=N)N)NC(=O)[C@H](CCCNC(=N)N)NC(=O)[C@H](CS)NC(=O)[C@H](CCC(N)=O)NC(=O)[C@H](CS)NC(=O)[C@@H](CCCNC(=N)N)NC(=O)[C@@H](CCCNC(=N)N)NC(=O)[C@@H](CCCNC(=N)N)NC(=O)[C@@H](CCCNC(=N)N)NC(=O)[C@@H](CCCNC(=N)N)NC(=O)[C@@H](CCCNC(=N)N)NC(=O)[C@@H](CCCNC(=N)N)NC(=O)[C@@H](CCCNC(=N)N)NC(=O)[C@H](N)CCCNC(=N)N)C(=O)N[C@@H](Cc1ccccc1)C(=O)N1CCC[C@H]1C(=O)O` [MUC1/CQC], the body weight result in data set [2] (50 mg/kg IP once each day over 11 d) was “no apparent effect”; in data set [2] (next 28 d after stopping administration, data not shown) it was “no subsequent effect”. In addition, the “growth / viable cell number” value in the data set on ZR-75-1/vector cells is “growth arrest and death”. The “nuclear MUC1-C levels” value at MUC1-C [3] is “down-regulation of nuclear MUC1-C levels”.
